pIC50: −log10 of the molar value. Like-named read-outs stand apart in the source and are kept apart here.
Key:
[1] = Pharmacokinetic profile in mice (Mouse PK); format: in vivo; conditions: female, BALB/c, whole blood, 5 mg/kg, i.v. and p.o. at 5 mg/kg
[2] = Human liver microsomal stability (HLM assay); format: in vitro ADME; conditions: human liver microsomes 1 mg/mL, 10 μmol/L test compound, 37° C.
Protocol: The human liver microsomal stability of the compounds of the invention was tested using the following procedure:
Mixed gender pooled human liver microsomes were purchased from Tebu-bio (Peterborough, U.K.). Samples contained final concentrations of 1 mg/mL microsomal protein, 3 mmol/L MgCl2, 1 mmol/L NADPH, 2.5 mmol/L, UDP-glucuronic acid, and 10 mmol/L phosphate buffer (pH 7.4) (all purchased from Sigma Aldrich, Gilingham, U.K). Reactions, at 37° C., were started by addition of 10 μmol/L test compound and were terminated at 0, 15 and 30 minutes by the addition of 3 volumes of ice-cold methanol containing internal standard. Samples were centrifuged at 2,800×g for 30 minutes at 4° C. and the supernatants analyzed. Control incubations were prepared as above with omission of cofactors. […]

HCT116 cells = assay: MTT cell toxicity assay; format: cell-based; conditions: Homo sapiens, HCT-116, 72 h incubation
Protocol: Cell proliferation assays were carried out using a colorimetric 3-(4,5-dimethylthiazol-2-yl)-2,5-diphenyltetrazolium bromide (MTT) assay (Sigma). 1.5×10^3 HCT116 cells, purchased from ATCC, were plated in 96-well plates at in 100 μL of culture medium in triplicates. Next day three fold dilutions of the compounds to be tested were made in culture medium so that, when diluted, the final concentration in the wells ranged from 0 to 10 μM. 25 μL of compounds dilutions in the medium was added to 100 μL of cells and incubated at 37° C. and 5% CO2 for 72 h. Cells were then incubated with 40 μL of 5 mg/mL MTT reagent at 37° C. for 3 h. The medium was carefully removed and crystals dissolved in 100 μL of DMSO. The absorbance was measured at 570 nm with the Wallac VICTOR2 1420 Multilabel Counter (PerkinElmer) and analysis performed to calculate the GI50 using GraphPad PRISM.

full length Mps1 = target: T1, full length Mps1 (Homo sapiens, UniProt P33981); assay: Measurement of inhibition of Mps1 kinase (Caliper EZ reader, H236 peptide); format: biochemical; conditions: full length Mps1, 60 min at room temperature
T1 construct: black 384-well low volume plates containing full length Mps1 (12.5 nM or 3 nM)
T1 sequence (P33981 1-857): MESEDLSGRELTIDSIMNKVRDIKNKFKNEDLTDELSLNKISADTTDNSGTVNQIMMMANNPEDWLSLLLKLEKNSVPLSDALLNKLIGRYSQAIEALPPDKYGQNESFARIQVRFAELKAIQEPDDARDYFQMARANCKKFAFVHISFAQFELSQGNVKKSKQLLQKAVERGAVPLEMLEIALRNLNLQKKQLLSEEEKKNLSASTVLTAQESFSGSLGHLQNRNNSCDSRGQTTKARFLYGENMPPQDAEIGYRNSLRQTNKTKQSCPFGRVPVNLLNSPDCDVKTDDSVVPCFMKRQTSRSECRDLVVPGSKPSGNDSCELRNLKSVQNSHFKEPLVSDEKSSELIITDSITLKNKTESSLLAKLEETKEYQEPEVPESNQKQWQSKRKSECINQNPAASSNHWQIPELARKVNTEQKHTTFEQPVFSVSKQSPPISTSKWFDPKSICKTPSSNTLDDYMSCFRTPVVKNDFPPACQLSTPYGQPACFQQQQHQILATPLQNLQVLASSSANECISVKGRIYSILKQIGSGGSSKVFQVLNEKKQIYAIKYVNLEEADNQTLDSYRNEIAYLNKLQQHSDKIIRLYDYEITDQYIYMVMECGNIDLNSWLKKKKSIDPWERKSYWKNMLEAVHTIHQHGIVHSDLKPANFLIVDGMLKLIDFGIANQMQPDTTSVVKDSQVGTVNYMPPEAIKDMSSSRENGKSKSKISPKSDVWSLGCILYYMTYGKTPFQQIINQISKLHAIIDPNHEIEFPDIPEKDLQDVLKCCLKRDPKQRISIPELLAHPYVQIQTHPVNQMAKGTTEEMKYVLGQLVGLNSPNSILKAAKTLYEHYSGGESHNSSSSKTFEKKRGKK
Protocol: The enzyme reaction (total volume 10 μl) was carried out in black 384-well low volume plates containing full length Mps1 (12.5 nM or 3 nM), fluorescent labelled peptide [known as H236, which has the sequence: 5FAM-[…]-CONH2] (5 μM), ATP ([…]), either DMSO (1% v/v) or the test compound (in the range 0.25 nM-100 μM in 1% DMSO) and assay buffer (50 mM HEPES (pH 7.0), 0.02% NaN3, 0.01% BSA, 0.1 mM Orthovandate, […], […], Roche protease inhibitor). The reaction was carried out for 60 min at room temperature and stopped by the addition of buffer (10 μl) containing 20 mM EDTA, 0.05% (v/v) Brij-35, in 0.1M HEPES-buffered saline (Free acid, Sigma, UK). The plate was read on a Caliper EZ reader II (Caliper Life Sciences).
The % inhibition of the compounds is calculated relative to the means of selected control wells. […] The % inhibitions at each concentration are then fitted to a 4 parameter logistic fit: y=(a+((b−a)/(1+((c/x^d)))) where a=asym min, b=asym max, c=IC50 and d=hill coefficient

[3] = read-out: MTT assay HCT116 GI50
[4] = read-out: GI50 in the MTT assay

Compound	clearance [1] [mL/min/kg]	HLM Assay (% of parent compound degraded at 30 minutes) [2] [%]	GI50 (HCT116 cells; [3]) [µM]	pIC50 (full length Mps1)	GI50 (HCT116 cells; [4]) [µM]
Cn1cc(C2=[N+](C(=O)OC(C)(C)C)c3cc(Nc4ccc(-c5nncn5C)cc4Cl)ncc3C2)cn1 [Comparator 1, reference compound]	5	22.1	0.359		
COc1cc(-c2nnnn2C)ccc1Nc1cc2c(cn1)cc(-c1cnn(C)c1)n2C(=O)OC(C)C [Example 2, Isopropyl 6-(2-methoxy-4-(1-methyl-1H-tetrazol-5-yl)phenylamino)-2-(1-methyl-1H-pyrazol-4-yl)-1H-pyrrolo[3,2-c]pyridine-1-carboxylate]			0.104	8.55	≤ 0.15
COc1cc(-c2cnnn2C)ccc1Nc1cc2c(cn1)cc(-c1cnn(C)c1)n2C(=O)OC(C)C [Example 1, Isopropyl 6-(2-methoxy-4-(1-methyl-1H-1,2,3-triazol-5-yl)phenylamino)-2-(1-methyl-1H-pyrazol-4-yl)-1H-pyrrolo[3,2-c]pyridine-1-carboxylate]	< 3.5		0.0594	8.92	≤ 0.15
Cn1cc(C2=[N+](C(=O)OC(C)(C)C)c3cc(Nc4ccc(-c5ccnn5C)cc4Cl)ncc3C2)cn1 [Comparator 3, reference compound]		39	0.548		

From patent publication US10501462B2, “Pyrrolo[3,2-c]pyridine-6-amino derivatives” (CANCER RESEARCH TECHNOLOGY LIMITED, priority 2015, dated 2019)
